# According to ChEMBL document CHEMBL1124916, “Neural networks applied to quantitative structure-activity relationship analysis” (1990):
# How the values were obtained:
# Assay type in all cases: functional
# Mus musculus [1] = species: Mus musculus; experiment: Minimum Effective Dose (MED) which cause 40% increase in life span, after singular injection at log (1/C).
# Mus musculus [2] = species: Mus musculus; experiment: Optimal Dose (OD) which cause maximum increase in the life span, after singular injection at log (1/C).
# Mus musculus [3] = species: Mus musculus; experiment: Minimum Effective Dose (MED) which cause 40% increase in life span, after chronic injection at log (1/C).
# Mus musculus [4] = species: Mus musculus; experiment: Optimal Dose (OD) which cause maximum increase in the life span, after chronic injection at log (1/C).
# [5] = Evaluation for the Anti-pentylenetetrazole effect.; parameters: unit not given here
# [6] = Compound was evaluated for the Anti-fighting behavior.; parameters: scale not given here
smiles,measurement,setting,value
CC(=O)C1=C(N2CC2)C(=O)C(C)=C(N2CC2)C1=O,MED,Mus musculus [1],3.94
same,OD,Mus musculus [2],3.48
CC1=C(N2CC2)C(=O)C(COc2ccccc2)=C(N2CC2)C1=O,MED,Mus musculus [1],4.68
same,MED,Mus musculus [3],5.15
same,OD,Mus musculus [4],4.71
same,OD,Mus musculus [2],3.89
CN(C)CCCN1C(=O)CN=C(c2ccccc2F)c2cc(Cl)ccc21,Anti-pent effect,[5],4.76
same,Anti-fighting behaviour,[6],3.97
CC1=C(N2CC2)C(=O)C(N2CC2)=C(N2CC2)C1=O,MED,Mus musculus [1],6.54
same,MED,Mus musculus [3],6.77
same,OD,Mus musculus [4],6.21
same,OD,Mus musculus [2],5.69
CC1=C(N2CC2)C(=O)C(Cc2ccccc2)=C(N2CC2)C1=O,MED,Mus musculus [1],4.74
same,MED,Mus musculus [3],4.85
same,OD,Mus musculus [4],4.69
same,OD,Mus musculus [2],4.26
CC(C)C1=C(N2CC2)C(=O)C=C(N2CC2)C1=O,MED,Mus musculus [1],5.16
same,MED,Mus musculus [3],5.68
same,OD,Mus musculus [4],5.37
same,OD,Mus musculus [2],4.59
CN1C(=O)CN=C(c2ccccc2F)c2cc([N+](=O)[O-])ccc21,Anti-pent effect,[5],6.5
same,Anti-fighting behaviour,[6],5.8
CC1=C(N2CC2)C(=O)C(CC(C)OC(N)=O)=C(N2CC2)C1=O (stereo not drawn),MED,Mus musculus [1],5.86
same,MED,Mus musculus [3],6.14
same,OD,Mus musculus [4],5.79
same,OD,Mus musculus [2],5.18
NC(=O)CN1C(=O)CN=C(c2ccccc2)c2cc(Cl)ccc21,Anti-pent effect,[5],5.07
same,Anti-fighting behaviour,[6],4.21
O=C1CN=C(c2ccccc2F)c2cc([N+](=O)[O-])ccc2N1,Anti-pent effect,[5],6
same,Anti-fighting behaviour,[6],5.17
O=C1CN=C(c2ccccc2C(F)(F)F)c2cc(C(F)(F)F)ccc2N1,Anti-pent effect,[5],4.97
same,Anti-fighting behaviour,[6],4.27
CC1=C(N2CC2)C(=O)C(CCOC(=O)N(C)C)=C(N2CC2)C1=O,MED,Mus musculus [1],5.09
same,OD,Mus musculus [2],4.84
CN(C)CCCN1C(=O)CN=C(c2ccccc2)c2cc(Cl)ccc21,Anti-pent effect,[5],3.38
CC1=C(N2CC2)C(=O)C(CCO)=C(N2CC2)C1=O,MED,Mus musculus [1],5.89
same,MED,Mus musculus [3],6.39
same,OD,Mus musculus [4],5.79
same,OD,Mus musculus [2],5.25
O=C1CN=C(c2ccccc2C(F)(F)F)c2cc([N+](=O)[O-])ccc2N1,Anti-pent effect,[5],5.7
same,Anti-fighting behaviour,[6],4.54
CCC1=C(N2CC2)C(=O)C(CC)=C(N2CC2)C1=O,MED,Mus musculus [1],4.94
same,MED,Mus musculus [3],5.46
same,OD,Mus musculus [4],5.09
same,OD,Mus musculus [2],4.79
CNC(=O)CN1C(=O)CN=C(c2ccccc2)c2cc(Cl)ccc21,Anti-pent effect,[5],5.83
same,Anti-fighting behaviour,[6],3.63
CC(C)C1=C(N2CC2)C(=O)C(C(C)C)=C(N2CC2)C1=O,MED,Mus musculus [1],4.36
same,MED,Mus musculus [3],4.77
same,OD,Mus musculus [4],4.59
same,OD,Mus musculus [2],4.14
O=C1C(c2ccccc2)=C(N2CC2)C(=O)C(c2ccccc2)=C1N1CC1,MED,Mus musculus [3],4.33
same,OD,Mus musculus [4],4.14
same,OD,Mus musculus [2],3.53
O=C1CN=C(c2ccccc2)c2cc(Br)ccc2N1,Anti-pent effect,[5],5.2
same,Anti-fighting behaviour,[6],4.2
CN(C)C(=O)OCCC1=C(N2CC2)C(=O)C(CCOC(=O)N(C)C)=C(N2CC2)C1=O,MED,Mus musculus [3],5.16
same,OD,Mus musculus [4],4.85
same,OD,Mus musculus [2],4.62
CC(=O)CN1C(=O)CN=C(c2ccccc2)c2cc(Cl)ccc21,Anti-pent effect,[5],5.28
same,Anti-fighting behaviour,[6],4.21
Cc1ccccc1C1=NCC(=O)Nc2ccc(Cl)cc21,Anti-pent effect,[5],4.57
same,Anti-fighting behaviour,[6],3.45
CN(C)CCN1C(=O)CN=C(c2ccccc2)c2cc(C(F)(F)F)ccc21,Anti-pent effect,[5],4.76
same,Anti-fighting behaviour,[6],4.27
CCCCSc1ccc2c(c1)C(c1ccccc1)=NCC(=O)N2,Anti-pent effect,[5],3.79
CCC(C)CN1C(=O)CN=C(c2ccccc2)c2cc([N+](=O)[O-])ccc21 (stereo not drawn),Anti-pent effect,[5],4.8
same,Anti-fighting behaviour,[6],3.77
O=C1CN=C(c2ccccc2)c2cc(Cl)ccc2N1,Anti-pent effect,[5],4.65
CC1=C(N2CC2)C(=O)C(CCCOC(N)=O)=C(N2CC2)C1=O,MED,Mus musculus [1],5.55
same,MED,Mus musculus [3],6.18
same,OD,Mus musculus [4],5.93
same,OD,Mus musculus [2],5.48
CC(=O)OCCC1=C(N2CC2)C(=O)C(C)=C(N2CC2)C1=O,MED,Mus musculus [3],5.78
same,OD,Mus musculus [4],5.78
CCCC1=C(N2CC2)C(=O)C(C(COC(N)=O)OC)=C(N2CC2)C1=O (stereo not drawn),MED,Mus musculus [1],5.01
same,MED,Mus musculus [3],5.63
same,OD,Mus musculus [4],5.07
same,OD,Mus musculus [2],4.64
CCSc1ccc2c(c1)C(c1ccccc1)=NCC(=O)N2,Anti-pent effect,[5],3.57
N#Cc1ccc2c(c1)C(c1ccccc1F)=NCC(=O)N2,Anti-pent effect,[5],5.63
same,Anti-fighting behaviour,[6],4.75
CCOC(COC(N)=O)C1=C(N2CC2)C(=O)C(C)=C(N2CC2)C1=O (stereo not drawn),MED,Mus musculus [1],5.53
same,MED,Mus musculus [3],6.18
same,OD,Mus musculus [4],5.22
same,OD,Mus musculus [2],4.62
CN1C(=O)CN=C(c2ccccc2)c2cc(Cl)ccc21,Anti-pent effect,[5],5.31
same,Anti-fighting behaviour,[6],4.45
CN1C(=O)CN=C(c2ccccc2)c2cc([N+](=O)[O-])ccc21,Anti-pent effect,[5],5.62
same,Anti-fighting behaviour,[6],5.07
CCC1=C(N2CC2)C(=O)C(C)=C(N2CC2)C1=O,MED,Mus musculus [1],5.16
same,MED,Mus musculus [3],5.86
same,OD,Mus musculus [4],5.37
same,OD,Mus musculus [2],4.52
CCN(CC)CCN1C(=O)CN=C(c2ccccc2)c2cc(Cl)ccc21,Anti-pent effect,[5],5.06
same,Anti-fighting behaviour,[6],3.57
O=C1CN=C(c2ccccc2[N+](=O)[O-])c2cc([N+](=O)[O-])ccc2N1,Anti-pent effect,[5],5.97
same,Anti-fighting behaviour,[6],3.91
